In PubChem BioAssay (NCI):
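Grown in 96-well plates, cells were treated for 48 hours with each compound at five concentrations. Insufficient inhibition: endpoint recorded as highest concentration tested. GI50 marks 50% less growth. TGI: concentration producing complete growth inhibition.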

Columns and labels:
Experiment in all cases: growth of human tumour cells (NCI), 48 h
MCF7 breast = system: MCF7 breast
BT-549 breast = system: BT-549 breast
LOX IMVI melanoma = system: LOX IMVI melanoma
MDA-MB-435 = system: MDA-MB-435
KM12 colon = system: KM12 colon
HOP-92 NSCLC = system: HOP-92 NSCLC
T-47D breast = system: T-47D breast
K-562 leukemia = system: K-562 leukemia
IGROV1 ovarian = system: IGROV1 ovarian
EKVX NSCLC = system: EKVX NSCLC

Structure (SMILES)	GI50 (MCF7 breast)	TGI (MCF7 breast)	GI50 (BT-549 breast)	TGI (BT-549 breast)	GI50 (LOX IMVI melanoma)	TGI (LOX IMVI melanoma)	GI50 (MDA-MB-435)	TGI (MDA-MB-435)	GI50 (KM12 colon)	TGI (KM12 colon)	GI50 (HOP-92 NSCLC)	TGI (HOP-92 NSCLC)	GI50 (T-47D breast)	TGI (T-47D breast)	GI50 (K-562 leukemia)	TGI (K-562 leukemia)	GI50 (IGROV1 ovarian)	TGI (IGROV1 ovarian)	GI50 (EKVX NSCLC)	TGI (EKVX NSCLC)
CC(C)(O)CCc1cccc(C(=O)c2cnn(-c3ccc(F)cc3)c2N)c1	> 25000 nM	> 25 µM	> 25000 nM	> 25 µM	> 25 µM	> 25 µM	> 25000 nM	> 25 µM	> 25 µM	> 25 µM	8700 nM	> 25 µM	8170 nM	> 25 µM	> 25000 nM	> 25 µM	> 25 µM	> 25 µM	–	–
O=C(CSC(c1ccccc1)c1ccccc1)N/N=C/c1ccccc1Cl	11200 nM	> 52.8 µM	2750 nM	17 µM	31.1 µM	> 100 µM	49600 nM	> 100 µM	27.1 µM	88.8 µM	7700 nM	37.2 µM	> 100000 nM	> 100 µM	10200 nM	46.8 µM	8.07 µM	> 55.6 µM	2750 nM	> 34.1 µM
COc1cc2c3c(n(CCN4CCOCC4)c(=O)c2cc1OC)-c1ccccc1C3=O	37800 nM	> 100 µM	> 100000 nM	> 100 µM	45.5 µM	> 100 µM	> 100000 nM	> 100 µM	> 100 µM	> 100 µM	> 100000 nM	> 100 µM	27400 nM	88 µM	99300 nM	> 100 µM	17.2 µM	> 100 µM	> 100000 nM	> 100 µM
CC(=O)c1ccc2c3c1[C@H]1O[C@H]1c1cccc(c1-3)[C@@H]1O[C@H]21	–	> 33.5 µM	–	4.53 µM	–	1.2 µM	–	4.54 µM	–	5.31 µM	–	3.69 µM	–	6.55 µM	–	> 35.2 µM	–	0.294 µM	–	4.03 µM
O=C1CC(Cc2n[nH]c3c2CCCC3)CC(=O)N1	–	> 100 µM	–	> 100 µM	–	> 100 µM	–	> 100 µM	–	> 100 µM	–	> 100 µM	–	> 100 µM	–	> 100 µM	–	> 100 µM	–	> 100 µM
CNCC(=O)NC(CO)C(=O)NC(CO)C(=O)NC1C(C(N)=O)OC(n2ccc(N)nc2=O)C(O)C1O (configuration not stated)	> 50 µg/mL	> 50 µg/mL	7.25 µg/mL	25.3 µg/mL	2.43 µg/mL	15.9 µg/mL	41.9 µg/mL	> 50 µg/mL	20.3 µg/mL	> 50 µg/mL	4.83 µg/mL	> 50 µg/mL	> 50 µg/mL	> 50 µg/mL	> 50 µg/mL	> 50 µg/mL	3.33 µg/mL	26.4 µg/mL	7.9 µg/mL	31.8 µg/mL
O=C(NCc1ccco1)C1CCN(S(=O)(=O)c2ccc(Cl)cc2)CC1	37800 nM	> 100 µM	> 100000 nM	> 100 µM	36.3 µM	> 100 µM	35400 nM	> 100 µM	> 100 µM	> 100 µM	> 100000 nM	> 100 µM	> 100000 nM	> 100 µM	39200 nM	> 100 µM	> 100 µM	> 100 µM	–	–
CC1=NN(c2cccc(Cl)c2)C(=O)/C1=C\C=C\c1ccccc1	1120 nM	18.8 µM	1640 nM	3.17 µM	1.48 µM	3.15 µM	2500 nM	7.37 µM	1.64 µM	3.1 µM	4630 nM	43 µM	2290 nM	39.5 µM	2880 nM	> 100 µM	1.67 µM	4.23 µM	3040 nM	> 100 µM
[Cl][Hg][c]1ccc2ccccc2c1	2070 nM	5.61 µM	1460 nM	2.82 µM	0.284 µM	1.97 µM	1680 nM	3.44 µM	7.66 µM	22.6 µM	1920 nM	3.46 µM	2050 nM	4.85 µM	862 nM	9.77 µM	1.31 µM	3.02 µM	3070 nM	7.96 µM
CC(=O)O[C@@H]1C2=C(C)C3(CC3)[C@@](C)(O)C(=O)C2=C[C@@]1(C)CO	371 nM	3.28 µM	509 nM	2.79 µM	1.04 µM	4.44 µM	480 nM	1.72 µM	1.32 µM	8.59 µM	1870 nM	5.75 µM	635 nM	7.03 µM	482 nM	> 100 µM	0.598 µM	5.08 µM	2660 nM	7.56 µM
O=C(NNc1ccccc1)c1ccc(Cl)c(Cl)c1	–	> 100 µM	–	> 66.8 µM	–	> 100 µM	–	> 100 µM	–	> 75.9 µM	–	> 100 µM	–	> 100 µM	–	> 100 µM	–	> 60.7 µM	–	99.4 µM
CC(C)c1[nH]nc2c(NCc3ccc(-c4ccccn4)cc3)nc(SCCN(C)C)nc12	< 21.8 nM	10.5 µM	19.4 nM	0.217 µM	0.123 µM	11.1 µM	< 17.6 nM	0.797 µM	< 0.0159 µM	6.07 µM	58.5 nM	0.468 µM	31.9 nM	2.69 µM	< 21 nM	10.3 µM	0.0579 µM	13.7 µM	49.4 nM	2.54 µM
CCN(CC)S(=O)(=O)c1cccc(-c2ccc3c(NC(=O)C4CC4)n[nH]c3c2)c1	1190 nM	> 6.25 µM	1530 nM	> 6.25 µM	2.44 µM	> 6.25 µM	283 nM	> 6.25 µM	1.08 µM	> 6.25 µM	2580 nM	> 6.25 µM	1050 nM	> 6.25 µM	381 nM	> 6.25 µM	3.79 µM	> 6.25 µM	2190 nM	> 6.25 µM
NC(Cc1cccnn1)C(=O)O (configuration not stated)	–	> 100 µM	–	> 100 µM	–	> 100 µM	–	> 100 µM	–	> 100 µM	–	> 100 µM	–	> 100 µM	–	> 100 µM	–	> 100 µM	–	> 100 µM
COC(=O)c1ccc(NC(=O)c2ccc(NC3=C(Cl)C(=O)N(Cc4ccccc4)C3=O)cc2)cc1	7160 nM	41.3 µM	16400 nM	32.1 µM	13.3 µM	26 µM	12300 nM	27 µM	25.7 µM	> 100 µM	12800 nM	25.4 µM	74100 nM	> 100 µM	19000 nM	> 100 µM	1.53 µM	11.2 µM	45400 nM	> 100 µM
CCC[n+]1cc2cc3c(cc2c2c1-c1cc4c(cc1C2)OCO4)OCO3 (tested in a mixture with another compound)	468 nM	6.34 µM	312 nM	1.82 µM	3.22 µM	14.3 µM	785 nM	2.29 µM	0.374 µM	5.33 µM	683 nM	4.07 µM	267 nM	1.61 µM	581 nM	> 35 µM	–	7.81 µM	2180 nM	19.2 µM
OC(CN1CCCC2CCCCC21)c1cc2ccccc2c2ccccc12 (configuration not stated)	1840 nM	3.51 µM	1540 nM	4.06 µM	1.53 µM	2.93 µM	2020 nM	5.06 µM	1.87 µM	4.04 µM	1240 nM	3.42 µM	2160 nM	5.71 µM	1680 nM	3.39 µM	2.59 µM	8.66 µM	1560 nM	3.54 µM
CN(C)C(=S)/N=c1\ssc(=S)n1Cc1ccco1	–	> 100 µM	–	84.8 µM	–	> 100 µM	–	1.95 µM	–	> 100 µM	–	> 100 µM	–	> 100 µM	–	> 55.7 µM	–	> 100 µM	–	> 100 µM
C#CCOc1cccc(Nc2ncnc3cc(NC(=O)C=C)ccc23)c1	3650 nM	> 100 µM	5300 nM	> 100 µM	3.73 µM	17.3 µM	2080 nM	> 100 µM	10.4 µM	> 100 µM	4770 nM	58.4 µM	3980 nM	> 100 µM	2790 nM	> 100 µM	10.7 µM	> 100 µM	14800 nM	> 100 µM
CCCCSc1nc(N)c2cn[nH]c2n1	23400 nM	> 62.5 µM	20100 nM	43.2 µM	29.9 µM	> 88.6 µM	21000 nM	41.8 µM	15 µM	30.4 µM	–	2.39 µM	8280 nM	52.6 µM	29700 nM	> 100 µM	29.5 µM	> 100 µM	15600 nM	57.3 µM
Cc1nc2sc(C(=O)Nc3ccccc3)c(N)c2cc1C(O)c1ccccc1 (configuration not stated)	91 nM	19.1 µM	409 nM	24.1 µM	0.382 µM	> 41.1 µM	30.8 nM	0.102 µM	0.344 µM	> 44 µM	3560 nM	54.5 µM	1270 nM	> 31.8 µM	93.3 nM	> 59.2 µM	0.445 µM	44.4 µM	597 nM	> 100 µM
O=C1C(Cl)=C(Nc2cc(Cl)ccc2O)C(=O)N1Cc1ccccc1	21000 nM	52.9 µM	20500 nM	44.3 µM	16.7 µM	32.2 µM	19000 nM	34.9 µM	22 µM	48.2 µM	–	–	27600 nM	> 100 µM	23700 nM	65.3 µM	5.53 µM	26.4 µM	21300 nM	50.5 µM
Cn1cc(C2=C(c3cc[nH]c3)C(=O)NC2=O)c2ccccc21	11800 nM	> 25 µM	> 17900 nM	> 25 µM	> 25 µM	> 25 µM	19700 nM	> 25 µM	25 µM	> 25 µM	> 25000 nM	> 25 µM	> 17500 nM	> 25 µM	> 25000 nM	> 25 µM	> 25 µM	> 25 µM	–	–
COc1ccc(/C=C2\COc3ccc(O)c(O)c3C2=O)cc1OC	682 nM	> 100 µM	1320 nM	3.25 µM	1.12 µM	2.54 µM	1320 nM	3.78 µM	–	–	2180 nM	5.91 µM	1540 nM	9.6 µM	467 nM	> 100 µM	0.84 µM	3.53 µM	2760 nM	18.8 µM
C[C@@]1(C(=O)O)CCC[C@]2(C)C1CC[C@]13C[C@@](O)(CO)[C@](O)(CC[C@]12O)C3 (some centres not stated)	> 100000 nM	> 100 µM	> 100000 nM	> 100 µM	> 100 µM	> 100 µM	> 100000 nM	> 100 µM	> 100 µM	> 100 µM	–	–	> 100000 nM	> 100 µM	> 100000 nM	> 100 µM	> 100 µM	> 100 µM	> 100000 nM	> 100 µM
Cc1ccnc2c(NC(C)CCCN)cc(O)c(O)c12 (configuration not stated)	1970 nM	5.9 µM	36100 nM	> 100 µM	9.69 µM	74.9 µM	22300 nM	50.6 µM	31.5 µM	> 100 µM	–	–	11600 nM	43.7 µM	26100 nM	> 100 µM	12.5 µM	32.9 µM	21300 nM	61.8 µM
Cc1c(Cl)cccc1NC(=O)c1sc2nc3c(cc2c1N)C(=O)CCC3	45.2 nM	> 100 µM	169 nM	> 100 µM	0.0782 µM	> 100 µM	20.3 nM	0.0488 µM	0.0658 µM	> 100 µM	47.9 nM	24.1 µM	55 nM	> 100 µM	37.1 nM	> 100 µM	0.153 µM	> 100 µM	–	–
